Reference: PubChem BioAssay AID2060882 (Molecular Pharmacology Branch, DTP, NCI, 2025)

Test system: 898857-211-R-J1-PDC complex spheroids, growth % test/control
Experiment: Anticancer human tumor 898857-211-R-J1-PDC patient-derived melanoma cell line growth inhibition [RAS]
Conditions: for IC50: curve of first compound; for viability, T/C: stronger effect = lower value; active means viability on the fitted dose curve at most 10% of control; inactive means the rest
Outline: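 Tumour cells grown as complex spheroids with HUVEC endothelial cells and mesenchymal stem cells, treated with RAS pathway inhibitor combinations. Each agent spans half-log steps from near clinical Cmax, or 10 microM where Cmax is unknown.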

[1] = second compound 0.000949 µM, first compound 0.0316 µM
[2] = second compound 0.000949 µM, first compound 0.1 µM
[3] = second compound 0.000949 µM, first compound 0.316 µM
[4] = second compound 0.000949 µM, first compound 1 µM
[5] = second compound 0.000949 µM, first compound 3.16 µM
[6] = second compound 0.000949 µM, first compound 10 µM
[7] = second compound 0.003 µM, first compound 0.0316 µM
[8] = second compound 0.003 µM, first compound 0.1 µM
[9] = second compound 0.003 µM, first compound 0.316 µM
[10] = second compound 0.003 µM, first compound 1 µM
[11] = second compound 0.003 µM, first compound 3.16 µM
[12] = second compound 0.003 µM, first compound 10 µM
[13] = second compound 0.00949 µM, first compound 0.0316 µM
[14] = second compound 0.00949 µM, first compound 0.1 µM
[15] = second compound 0.00949 µM, first compound 0.316 µM
[16] = second compound 0.00949 µM, first compound 1 µM
[17] = second compound 0.00949 µM, first compound 3.16 µM
[18] = second compound 0.00949 µM, first compound 10 µM
[19] = second compound 0.03 µM, first compound 0.0316 µM
[20] = second compound 0.03 µM, first compound 0.1 µM
[21] = second compound 0.03 µM, first compound 0.316 µM
[22] = second compound 0.03 µM, first compound 1 µM
[23] = second compound 0.03 µM, first compound 3.16 µM
[24] = second compound 0.03 µM, first compound 10 µM
[25] = second compound 0.0949 µM, first compound 0.0316 µM
[26] = second compound 0.0949 µM, first compound 0.1 µM
[27] = second compound 0.0949 µM, first compound 0.316 µM
[28] = second compound 0.0949 µM, first compound 1 µM
[29] = second compound 0.0949 µM, first compound 3.16 µM
[30] = second compound 0.0949 µM, first compound 10 µM
[31] = second compound 0.3 µM, first compound 0.0316 µM
[32] = second compound 0.3 µM, first compound 0.1 µM
[33] = second compound 0.3 µM, first compound 0.316 µM
[34] = second compound 0.3 µM, first compound 1 µM
[35] = second compound 0.3 µM, first compound 3.16 µM
[36] = second compound 0.3 µM, first compound 10 µM
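Further: spheroids exposed to compound for seven days before readout.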
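Wherever viability, T/C is given: 100% = DMSO vehicle control wells.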

CC(C)NCC(C(=O)N1CCN(c2ncnc3c2C(C)CC3O)CC1)c1ccc(Cl)cc1 (stereo not drawn) + CCn1c(-c2cccnc2C(C)OC)c2c3cc(ccc31)N1CCOC(CC(NC(=O)C(C(C)C)N(C)C(=O)C3(F)CCN(C(=O)C#CC(C)(C)N(C)C)CC3)C(=O)N3CCCC(N3)C(=O)OCC(C)(C)C2)C1
3.31 µM: IC50 (second compound 0.3 µM)
> 10 µM: IC50 (second compound 0.000949 µM) | IC50 (second compound 0.003 µM)
9.66 µM: IC50 (second compound 0.00949 µM)
inactive: viability, T/C [1] 111% | viability, T/C [2] 101% | viability, T/C [3] 90.9% | viability, T/C [4] 91.6% | viability, T/C [5] 65.4% | viability, T/C [6] 50.9% | viability, T/C [7] 115% | viability, T/C [8] 117% | viability, T/C [9] 103% | viability, T/C [10] 82.1% | viability, T/C [11] 79.6% | viability, T/C [12] 57.2% | viability, T/C [13] 113% | viability, T/C [14] 110% | viability, T/C [15] 102% | viability, T/C [16] 84.8% | viability, T/C [17] 73% | viability, T/C [18] 48.7% | viability, T/C [19] 112% | viability, T/C [20] 100% | viability, T/C [21] 97.3% | viability, T/C [22] 91.1% | viability, T/C [23] 74.4% | viability, T/C [24] 45.6% | viability, T/C [25] 92% | viability, T/C [26] 89.4% | viability, T/C [27] 92.7% | viability, T/C [28] 76.4% | viability, T/C [29] 60.1% | viability, T/C [30] 39.7% | viability, T/C [31] 75% | viability, T/C [32] 72.7% | viability, T/C [33] 69.5% | viability, T/C [34] 55.9% | viability, T/C [35] 53.5% | viability, T/C [36] 37.1%
8.56 µM: IC50 (second compound 0.03 µM)
5.46 µM: IC50 (second compound 0.0949 µM)

CC(C)n1nc(-c2ccc3oc(N)nc3c2)c2c(N)ncnc21 + CCn1c(-c2cccnc2C(C)OC)c2c3cc(ccc31)N1CCOC(CC(NC(=O)C(C(C)C)N(C)C(=O)C3(F)CCN(C(=O)C#CC(C)(C)N(C)C)CC3)C(=O)N3CCCC(N3)C(=O)OCC(C)(C)C2)C1
0.0271 µM: IC50 (second compound 0.000949 µM)
0.021 µM: IC50 (second compound 0.03 µM)
0.0238 µM: IC50 (second compound 0.003 µM) | IC50 (second compound 0.00949 µM)
inactive: viability, T/C (second compound 0.000949 µM, first compound 0.000316 µM) 107% | viability, T/C (second compound 0.000949 µM, first compound 0.001 µM) 91.6% | viability, T/C (second compound 0.000949 µM, first compound 0.00316 µM) 87.2% | viability, T/C (second compound 0.000949 µM, first compound 0.01 µM) 68.7% | viability, T/C [1] 46.4% | viability, T/C [2] 20.5% | viability, T/C (second compound 0.003 µM, first compound 0.000316 µM) 106% | viability, T/C (second compound 0.003 µM, first compound 0.001 µM) 90.9% | viability, T/C (second compound 0.003 µM, first compound 0.00316 µM) 78.8% | viability, T/C (second compound 0.003 µM, first compound 0.01 µM) 70% | viability, T/C [7] 44.8% | viability, T/C [8] 20.4% | viability, T/C (second compound 0.00949 µM, first compound 0.000316 µM) 99.1% | viability, T/C (second compound 0.00949 µM, first compound 0.001 µM) 99.2% | viability, T/C (second compound 0.00949 µM, first compound 0.00316 µM) 86.2% | viability, T/C (second compound 0.00949 µM, first compound 0.01 µM) 75.1% | viability, T/C [13] 41.3% | viability, T/C [14] 17.7% | viability, T/C (second compound 0.03 µM, first compound 0.000316 µM) 103% | viability, T/C (second compound 0.03 µM, first compound 0.001 µM) 86.9% | viability, T/C (second compound 0.03 µM, first compound 0.00316 µM) 79.9% | viability, T/C (second compound 0.03 µM, first compound 0.01 µM) 72.1% | viability, T/C [19] 36.8% | viability, T/C [20] 17% | viability, T/C (second compound 0.0949 µM, first compound 0.000316 µM) 89.1% | viability, T/C (second compound 0.0949 µM, first compound 0.001 µM) 87.2% | viability, T/C (second compound 0.0949 µM, first compound 0.00316 µM) 86.5% | viability, T/C (second compound 0.0949 µM, first compound 0.01 µM) 55.6% | viability, T/C [25] 35.5% | viability, T/C [26] 16.2% | viability, T/C (second compound 0.3 µM, first compound 0.000316 µM) 74.9% | viability, T/C (second compound 0.3 µM, first compound 0.001 µM) 64% | viability, T/C (second compound 0.3 µM, first compound 0.00316 µM) 61.1% | viability, T/C (second compound 0.3 µM, first compound 0.01 µM) 46.3% | viability, T/C [31] 30% | viability, T/C [32] 13.6%
0.00705 µM: IC50 (second compound 0.3 µM)
0.0151 µM: IC50 (second compound 0.0949 µM)

CC(Nc1ccc2c(c1)OCCn1cc(N3C(=O)OCC3C(F)F)nc1-2)C(N)=O (stereo not drawn) + CCn1c(-c2cccnc2C(C)OC)c2c3cc(ccc31)N1CCOC(CC(NC(=O)C(C(C)C)N(C)C(=O)C3(F)CCN(C(=O)C#CC(C)(C)N(C)C)CC3)C(=O)N3CCCC(N3)C(=O)OCC(C)(C)C2)C1
5.64 µM: IC50 (second compound 0.3 µM)
inactive: viability, T/C [1] 110% | viability, T/C [2] 87% | viability, T/C [3] 89.4% | viability, T/C [4] 92.7% | viability, T/C [5] 89.3% | viability, T/C [6] 65.8% | viability, T/C [7] 105% | viability, T/C [8] 103% | viability, T/C [9] 97.4% | viability, T/C [10] 104% | viability, T/C [11] 96.7% | viability, T/C [12] 63.2% | viability, T/C [13] 94.9% | viability, T/C [14] 104% | viability, T/C [15] 92.8% | viability, T/C [16] 103% | viability, T/C [17] 78.7% | viability, T/C [18] 66.4% | viability, T/C [19] 89.8% | viability, T/C [20] 98.3% | viability, T/C [21] 98.2% | viability, T/C [22] 95.4% | viability, T/C [23] 75.8% | viability, T/C [24] 58.8% | viability, T/C [25] 103% | viability, T/C [26] 98.7% | viability, T/C [27] 91% | viability, T/C [28] 83.8% | viability, T/C [29] 63.1% | viability, T/C [30] 53% | viability, T/C [31] 73.9% | viability, T/C [32] 74.7% | viability, T/C [33] 68% | viability, T/C [34] 69.5% | viability, T/C [35] 57.6% | viability, T/C [36] 41.8%
> 10 µM: IC50 (second compound 0.000949 µM) | IC50 (second compound 0.003 µM) | IC50 (second compound 0.00949 µM) | IC50 (second compound 0.03 µM) | IC50 (second compound 0.0949 µM)

C[C@@H](NC(=O)c1ncnc(N)c1Cl)c1ncc(C(=O)Nc2cc(C(F)(F)F)c(Cl)cn2)s1 + CCn1c(-c2cccnc2C(C)OC)c2c3cc(ccc31)N1CCOC(CC(NC(=O)C(C(C)C)N(C)C(=O)C3(F)CCN(C(=O)C#CC(C)(C)N(C)C)CC3)C(=O)N3CCCC(N3)C(=O)OCC(C)(C)C2)C1
3.88 µM: IC50 (second compound 0.03 µM)
3.03 µM: IC50 (second compound 0.0949 µM)
inactive: viability, T/C [1] 121% | viability, T/C [2] 114% | viability, T/C [3] 112% | viability, T/C [4] 83.5% | viability, T/C [5] 56.2% | viability, T/C [6] 27.5% | viability, T/C [7] 128% | viability, T/C [8] 105% | viability, T/C [9] 103% | viability, T/C [10] 66.4% | viability, T/C [11] 45.6% | viability, T/C [12] 28.8% | viability, T/C [13] 114% | viability, T/C [14] 120% | viability, T/C [15] 111% | viability, T/C [16] 81.3% | viability, T/C [17] 52.1% | viability, T/C [18] 27.9% | viability, T/C [19] 123% | viability, T/C [20] 116% | viability, T/C [21] 97.4% | viability, T/C [22] 83.7% | viability, T/C [23] 53.6% | viability, T/C [24] 26.6% | viability, T/C [25] 105% | viability, T/C [26] 100% | viability, T/C [27] 87.2% | viability, T/C [28] 66.7% | viability, T/C [29] 51.7% | viability, T/C [30] 24.9% | viability, T/C [31] 82.9% | viability, T/C [32] 87.9% | viability, T/C [33] 73.2% | viability, T/C [34] 62.5% | viability, T/C [35] 41.8% | viability, T/C [36] 21.3%
3.12 µM: IC50 (second compound 0.00949 µM)
2.55 µM: IC50 (second compound 0.003 µM)
3.86 µM: IC50 (second compound 0.000949 µM)
1.97 µM: IC50 (second compound 0.3 µM)
